# Assays:
# [1] = test system: cariogenic plaque bacteria (standard strains); experiment: Inhibitory effect of acid production, standard strains; type: cell-based, Streptococcus, Lactobacillus and Actinomyces; settings: ranking; FIG. 1
# Description: In order to identify the action by which medium-chain fatty acids inhibit acid production, the inhibitory effect and concentration of acid production were determined in seven kinds of standard cariogenic plaque bacteria. Also, the inhibitory effect of acid production for 20 kinds of cariogenic plaque bacteria, separated from the human oral cavity, was assayed. Liquid culture media used were: Todd-Hewitt broth of Streptococcus, Lactobacilli MRS broth of Lactobacillus and Brain Heart Infusion broth of Actinomyces. […] The final pH of the culture medium was measured after culturing for 24^~ 48 hours in 10% CO2 incubator.
# A. viscosus ATCC 15987 = experiment: Inhibitory effect on extracellular polysaccharide synthesis, standard strain; type: cell-based; settings: 1 mM, 2% glucose, 24-48 hours
# Description: (§1) In order to identify the effect by which medium-chain fatty acids inhibit plaque matrix formation, inhibitory effect and concentration of extracellular polysaccharide synthesis were determined in seven kinds of standard cariogenic plaque bacteria. Also, the inhibitory effect of extracellular polysaccharide synthesis for 20 kinds of cariogenic plaque bacteria, separated from the human oral cavity, was measured. Liquid culture media used were: Todd-Hewitt broth of Streptococcus, Lactobacilli MRS broth of Lactobacillus and Brain Heart Infusion broth of Actinomyces. 0.1 ml of bacterial (or cell) suspension (OD600 =0.5) of each bacteria was inoculated to 5.9 ml of culture media containing 1 mM of medium-chain fatty acids and 2% of glucose, and was cultured for 24^~ 48 hours in 10% CO2 incubator. After culturing, the resultant was centrifuged to precipitate at 5,000×g for 15 minutes, then soluble extracellular polysaccharide was separated and purified from the supernatant and insoluble extracellular polysaccharide from the cell pellet, and then these were quantified.
# S. sanguis 10556 = experiment: as above; type: cell-based; settings: 1 mM
# Description: as §1
# Streptococcus = experiment: Inhibitory effect on extracellular polysaccharide synthesis, summary over Streptococcus standard strains; type: cell-based; settings: 1 mM, compared with control group, range over strains, read-out: synthesis of soluble extracellular polysaccharide inhibited by
# Description: as §1
# L. casei ATCC 27216 = experiment: Inhibitory effect on extracellular polysaccharide synthesis, standard strain; type: cell-based, Lactobacillus casei; settings: 1 mM, 2% glucose, 24-48 hours
# Description: as §1
# L. casei ATCC 4646 = experiment: as above; type: cell-based, Lactobacillus casei
# Description: as §1
# [2] = Extracellular polysaccharide in liquid medium with fatty acid, no bacteria
# Description: as §1
# S. mutans JC-2 = experiment: Inhibitory effect on extracellular polysaccharide synthesis, standard strain; type: cell-based, Streptococcus mutans; settings: 1 mM
# Description: as §1
# S. mutans 10449 = experiment: as above; type: cell-based, Streptococcus mutans; settings: 1 mM
# Description: as §1
# S. mutans BHT = experiment: as above; type: cell-based, Streptococcus mutans; settings: 1 mM
# Description: as §1
# [3] = test system: cariogenic plaque bacteria; experiment: Inhibitory effect on extracellular polysaccharide synthesis (summary); type: cell-based, Streptococcus, Lactobacillus and Actinomyces; settings: 1 mM; ranking
# Description: as §1, with “quantified. So the experimental results that represent inhibitory effect of medium-chain fatty acids upon extracellular polysaccharide synthesis, are shown in table 1, 2, 3 and 4.” for “quantified.”
# [4] = test system: cariogenic plaque bacteria (standard strains); experiment: Inhibitory effect of bacterial growth, standard strains; type: cell-based, Streptococcus, Lactobacillus and Actinomyces; settings: ranking; FIG. 3
# Description: In order to evaluate how medium-chain fatty acids influence bacterial growth of cariogenic plaque bacteria, the influence on each bacteria was evaluated after selecting seven kinds of bacterial strains as standard bacteria among cariogenic plaque bacteria. […] The results that medium-chain fatty acids have on influencing bacterial growth of cariogenic plaque bacteria is shown in FIG. 3. And the result of measuring inhibitory effect of bacterial growth of 20 kinds of cariogenic plaque bacteria separated from the human oral cavities is shown in FIG. 4.
# Lactobacillus = experiment: Inhibitory effect on extracellular polysaccharide synthesis, summary over Lactobacillus standard strains; type: cell-based; settings: 1 mM, compared with control group, according to strains, read-out: synthesis of soluble extracellular polysaccharide inhibited/reduced by
# Description: as §1
compound,measurement,setting,value
"CCCCCCCCC(=O)[O-].[Na+] [C9, sodium nonanoate]","inhibitory effect of acid production, sequence",[1],sodium laurate>sodium capriate>sodium nonanoate
same,"Extracellular polysaccharide, insoluble",A. viscosus ATCC 15987; control 2.1 ± 0.2,1.4 ± 0.5 µg/mL
same,"Extracellular polysaccharide, soluble",A. viscosus ATCC 15987; control 222.8 ± 3.3,241.6 ± 3.9 µg/mL
same,"Extracellular polysaccharide, insoluble","S. sanguis 10556; 2% glucose, 24-48 hours, control 0.6 ± 0.3",0.5 ± 0.2 µg/mL
same,"Extracellular polysaccharide, soluble","S. sanguis 10556; 2% glucose, 24-48 hours, control 25.9 ± 4.3",17.4 ± 8.9 µg/mL
same,inhibition at 1000 µM,"S. sanguis 10556; vs control, read-out: Inhibitory rate, soluble",33%
same,inhibition at 1000 µM,Streptococcus,32 to 82%
same,"Extracellular polysaccharide, insoluble",L. casei ATCC 27216; control 5.9 ± 0.4,5.1 ± 0.5 µg/mL
same,"Extracellular polysaccharide, soluble",L. casei ATCC 27216; control 67.3 ± 4.5,70.1 ± 3.3 µg/mL
same,"Extracellular polysaccharide, insoluble","L. casei ATCC 4646; 1 mM, 2% glucose, 24-48 hours, control 5.3 ± 0.5",3.8 ± 0.5 µg/mL
same,"Extracellular polysaccharide, soluble","L. casei ATCC 4646; 1 mM, 2% glucose, 24-48 hours, control 43.6 ± 7.0",31.9 ± 4.0 µg/mL
same,inhibition at 1000 µM,"L. casei ATCC 4646; Lacticaseibacillus casei, ATCC4646, read-out: Inhibitory rate, soluble",27%
same,"Extracellular polysaccharide, soluble","[2]; Table 1, 1 mM",2.0 ± 0.7 µg/mL
same,"Extracellular polysaccharide, soluble","[2]; Table 2, 1 mM",4.6 ± 0.2 µg/mL
same,"Extracellular polysaccharide, soluble","[2]; Table 3, 1 mM",8.2 ± 0.4 µg/mL
same,"Extracellular polysaccharide, insoluble","S. mutans JC-2; 2% glucose, 24-48 hours, control 1.1 ± 0.2",0.9 ± 0.3 µg/mL
same,"Extracellular polysaccharide, soluble","S. mutans JC-2; 2% glucose, 24-48 hours, control 34.4 ± 3.9",6.2 ± 3.5 µg/mL
same,inhibition at 1000 µM,"S. mutans JC-2; Streptococcus mutans, JC2, vs control, read-out: Inhibitory rate, soluble",82%
same,"Extracellular polysaccharide, insoluble","S. mutans 10449; 2% glucose, 24-48 hours, control 0.8 ± 0.3",0.6 ± 0.2 µg/mL
same,"Extracellular polysaccharide, soluble","S. mutans 10449; 2% glucose, 24-48 hours, control 74.6 ± 1.8",50.8 ± 12.2 µg/mL
same,inhibition at 1000 µM,"S. mutans 10449; Streptococcus mutans, 10449, vs control, read-out: Inhibitory rate, soluble",32%
same,"Extracellular polysaccharide, insoluble","S. mutans BHT; 2% glucose, 24-48 hours, control 0.5 ± 0.1",0.3 ± 0.1 µg/mL
same,inhibition at 1000 µM,"S. mutans BHT; Streptococcus mutans, vs control, read-out: Inhibitory rate, soluble",75%
same,"inhibitory effect of extracellular polysaccharide synthesis, sequence",[3],sodium laurate>sodium capriate>sodium nonanoate
same,"inhibitory effect of bacterial growth, sequence",[4],sodium laurate>sodium capriate>sodium nonanoate
same,inhibition at 1000 µM,Lactobacillus,27%
"CCCCCCCCCC(=O)O [C10, sodium capriate]","inhibitory effect of acid production, sequence",[1],sodium laurate>sodium capriate>sodium nonanoate
same,"inhibitory effect of extracellular polysaccharide synthesis, sequence",[3],sodium laurate>sodium capriate>sodium nonanoate
same,"inhibitory effect of bacterial growth, sequence",[4],sodium laurate>sodium capriate>sodium nonanoate

# Reference: patent US6180599A, “Pharmaceutical composition, containing medium-chain fatty acids as active ingredients, for dental caries and periodontal disease” (priority 1997, dated 2001)
